In BindingDB's records for doi:10.1016/s0960-894x(02)00302-5 (Wyeth Research, 2002):

The compounds below were run against Proto-oncogene tyrosine-protein kinase Src (Homo sapiens, UniProt P12931) (assay: Kinase inhibition Assay). Details: pH 7.5; 30 °C.
Method: Src kinase activity was measured in an ELISA format. IC50 is the inhibitor concentration which inhibits 50% of kinase activity that catalyzes the transfer of the terminal phosphate from ATP to the substrate.

Sequence of Proto-oncogene tyrosine-protein kinase Src (P12931 2-536 limits assumed): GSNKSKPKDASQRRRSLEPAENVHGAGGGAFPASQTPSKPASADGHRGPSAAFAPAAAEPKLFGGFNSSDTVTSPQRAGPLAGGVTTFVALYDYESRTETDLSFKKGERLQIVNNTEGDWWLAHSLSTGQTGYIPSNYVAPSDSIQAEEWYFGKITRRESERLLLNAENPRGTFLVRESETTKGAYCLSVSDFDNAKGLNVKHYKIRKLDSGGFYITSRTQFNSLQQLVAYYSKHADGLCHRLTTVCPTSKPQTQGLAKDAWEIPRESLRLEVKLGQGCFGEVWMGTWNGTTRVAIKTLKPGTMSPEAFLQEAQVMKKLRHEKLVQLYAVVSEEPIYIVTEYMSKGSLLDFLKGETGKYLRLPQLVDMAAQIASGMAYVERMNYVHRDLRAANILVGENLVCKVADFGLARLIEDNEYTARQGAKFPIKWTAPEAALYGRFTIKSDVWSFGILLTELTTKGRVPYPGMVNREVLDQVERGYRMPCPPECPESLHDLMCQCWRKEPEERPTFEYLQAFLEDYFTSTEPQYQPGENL

`COc1cc(Nc2c(C#N)cnc3cc(-c4ccc(CN5CCSCC5)s4)ccc23)c(Cl)cc1Cl` [4-[(2,4-dichloro-5-methoxyphenyl)amino]-7-[5-(thiomorpholin-4-ylmethyl)thiophen-2-yl]quinoline-3-carbonitrile] and `COc1cc(Nc2c(C#N)cnc3cc(-c4ccc(CN5CCCCC5)s4)ccc23)c(Cl)cc1Cl` [4-[(2,4-dichloro-5-methoxyphenyl)amino]-7-[5-(piperidin-1-ylmethyl)thiophen-2-yl]quinoline-3-carbonitrile] are within 1.5-fold of each other in IC50: 4.4 nM for the first, 4.2 nM for the second.

With `COc1cc(Nc2c(C#N)cnc3cc(-c4ccc(CN5CCC(O)CC5)s4)ccc23)c(Cl)cc1Cl` [4-[(2,4-dichloro-5-methoxyphenyl)amino]-7-{5-[(4-hydroxypiperidin-1-yl)methyl]thiophen-2-yl}quinoline-3-carbonitrile] the IC50 was 2 nM.
